# Data: patent US8455475B2 (Gruenenthal GmbH, priority 2009, dated 2013)
# Tests used:
# [1] = target: T1, human B1R (bradykinin receptor 1) (Homo sapiens, UniProt P46663); assay: FLIPR Ca2+ assay (Fluo-4) on CHO K1 cells stably transfected with the human B1R gene (hB1R cells): % inhibition at 10 μM / IC50, agonist Lys-Des-Arg9-bradykinin; format: cell-based; conditions: for inhibition at 10 µM: CHO-K1, human B1R
# T1 construct: expressed in transfected cells; host or cells: CHO K1 cells
# T1 sequence (P46663 1-353): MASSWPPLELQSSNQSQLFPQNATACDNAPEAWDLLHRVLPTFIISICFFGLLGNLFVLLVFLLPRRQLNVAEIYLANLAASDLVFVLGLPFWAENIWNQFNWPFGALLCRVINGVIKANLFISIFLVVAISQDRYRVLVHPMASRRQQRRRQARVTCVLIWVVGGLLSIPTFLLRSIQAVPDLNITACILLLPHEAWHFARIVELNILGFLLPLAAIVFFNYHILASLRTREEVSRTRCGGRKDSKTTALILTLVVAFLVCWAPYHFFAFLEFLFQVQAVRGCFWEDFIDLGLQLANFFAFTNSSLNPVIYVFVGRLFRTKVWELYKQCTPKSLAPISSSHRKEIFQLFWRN
# In short: (§1)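 Peak fluorescence counts read on FLIPR (λex 488, λem 540 nm) after two additions: compound first, then agonist at EC80 after 10–20 min. Human line challenged with Lys-Des-Arg9-bradykinin, rat line with Des-Arg9-bradykinin. Suppression of Ca2+ inflow expressed as % of maximum inhibition.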
# [2] = target: T2, rat B1R (bradykinin receptor 1) (Rattus norvegicus, UniProt P97583); assay: FLIPR Ca2+ assay (Fluo-4) on CHO K1 cells stably transfected with the B1R gene of the rat (rB1R cells): % inhibition at 10 μM / IC50, agonist Des-Arg9-bradykinin; format: cell-based; conditions: for inhibition at 10 µM: CHO-K1, rat B1R
# T2 construct: expressed in transfected cells; host or cells: CHO K1 cells
# T2 sequence (P97583 1-337): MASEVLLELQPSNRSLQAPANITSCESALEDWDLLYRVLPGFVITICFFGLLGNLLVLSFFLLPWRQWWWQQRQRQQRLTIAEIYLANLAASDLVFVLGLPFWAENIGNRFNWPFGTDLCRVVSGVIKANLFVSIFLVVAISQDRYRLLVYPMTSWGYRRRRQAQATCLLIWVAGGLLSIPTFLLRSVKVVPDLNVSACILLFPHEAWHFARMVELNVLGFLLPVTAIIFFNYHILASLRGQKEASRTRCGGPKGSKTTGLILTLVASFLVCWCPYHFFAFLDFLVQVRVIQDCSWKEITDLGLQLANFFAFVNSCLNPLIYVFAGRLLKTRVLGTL
# In short: as §1
inhibition at 10 µM [1] [%],inhibition at 10 µM [2] [%],% Inhibition (human B1R) at 10 μM ([1]; human B1R) [%],% Inhibition (rat B1R) at 10 μM ([2]; rat B1R) [%],Structure (SMILES)
25,87,–,–,"Cn1cncc1CN1CCC2(CC1)CCN(C(=O)c1ccc3c(c1)C(NC(=O)c1ccccc1Cl)CC3)CC2 (stereo not drawn) [IND_CC-526, 2-Chloro-N-[6-[9-[(3-methyl-3H-imidazol-4-yl)-methyl]-3,9-diazaspiro[5.5]undecane-3-carbonyl]-2,3-dihydro-1H-inden-1-yl]-benzamide]"
24,102,–,–,"Cc1nc(CN2CCC3(CC2)CCN(C(=O)c2ccc4c(c2)C(NC(=O)c2ccccc2Cl)CC4)CC3)c[nH]1 (stereo not drawn) [IND_CC-528, 2-Chloro-N-[6-[9-[(2-methyl-1H-imidazol-4-yl)-methyl]-3,9-diazaspiro[5.5]undecane-3-carbonyl]-2,3-dihydro-1H-inden-1-yl]-benzamide]"
49,90,–,–,"N#Cc1ccccc1CN1CCC2(CC1)CCN(C(=O)c1ccc3c(c1)C(NC(=O)c1ccccc1Cl)CC3)CC2 (stereo not drawn) [IND_CC-535, 2-Chloro-N-[6-[9-[(2-cyano-phenyl)-methyl]-3,9-diazaspiro[5.5]undecane-3-carbonyl]-2,3-dihydro-1H-inden-1-yl]-benzamide]"
27,104,–,–,"O=C(NC1CCc2ccc(C(=O)N3CCC4(CCN(Cc5ccc(F)c(F)c5)CC4)C3)cc21)c1ccccc1Cl (stereo not drawn) [IND_CC-542, 2-Chloro-N-[6-[8-[(3,4-difluoro-phenyl)-methyl]-2,8-diazaspiro[4.5]decane-2-carbonyl]-2,3-dihydro-1H-inden-1-yl]-benzamide]"
-2,90,–,–,"Cc1nc[nH]c1CN1CCC2(CC1)CCN(C(=O)c1ccc3c(c1)C(NC(=O)c1ccccc1Cl)CC3)C2 (stereo not drawn) [IND_CC-553, 2-Chloro-N-[6-[8-[(5-methyl-3H-imidazol-4-yl)-methyl]-2,8-diazaspiro[4.5]decane-2-carbonyl]-2,3-dihydro-1H-inden-1-yl]-benzamide]"
7,100,–,–,"O=C(NC1CCc2ccc(C(=O)N3CCC4(CCN(Cc5ccc(F)cc5Cl)CC4)C3)cc21)c1ccccc1Cl (stereo not drawn) [IND_CC-556, 2-Chloro-N-[6-[8-[(2-chloro-4-fluoro-phenyl)-methyl]-2,8-diazaspiro[4.5]decane-2-carbonyl]-2,3-dihydro-1H-inden-1-yl]-benzamide]"
27,104,–,–,"N#Cc1cccc(CN2CCC3(CC2)CCN(C(=O)c2ccc4c(c2)C(NC(=O)c2ccccc2Cl)CC4)C3)c1 (stereo not drawn) [IND_CC-562, 2-Chloro-N-[6-[8-[(3-cyano-phenyl)-methyl]-2,8-diazaspiro[4.5]decane-2-carbonyl]-2,3-dihydro-1H-inden-1-yl]-benzamide]"
20,105,–,–,"O=C(NC1CCc2ccc(C(=O)N3CCC4(CCN(Cc5ccc6nccnc6c5)CC4)C3)cc21)c1ccccc1Cl (stereo not drawn) [IND_CC-568, 2-Chloro-N-[6-[8-(quinoxalin-6-yl-methyl)-2,8-diazaspiro[4.5]decane-2-carbonyl]-2,3-dihydro-1H-inden-1-yl]-benzamide]"
43,100,–,–,"O=C(NC1CCc2ccc(C(=O)N3CCC4(CCN(C(=O)C5CC5)CC4)C3)cc21)c1ccccc1Cl (stereo not drawn) [IND_CC-573, 2-Chloro-N-[6-[8-(cyclopropanecarbonyl)-2,8-diazaspiro[4.5]decane-2-carbonyl]-2,3-dihydro-1H-inden-1-yl]-benzamide]"
14,101,–,–,"CC(C)(C)CC(=O)N1CCC2(CC1)CCN(C(=O)c1ccc3c(c1)C(NC(=O)c1ccccc1Cl)CC3)C2 (stereo not drawn) [IND_CC-574, 2-Chloro-N-[6-[8-(3,3-dimethyl-butanoyl)-2,8-diazaspiro[4.5]decane-2-carbonyl]-2,3-dihydro-1H-inden-1-yl]-benzamide]"
21,96,–,–,"O=C(NC1CCc2ccc(C(=O)N3CCC4(CCN(C(=O)Cc5ccc(Cl)cc5)CC4)C3)cc21)c1ccccc1Cl (stereo not drawn) [IND_CC-577, 2-Chloro-N-[6-[8-[2-(4-chlorophenyl)-acetyl]-2,8-diazaspiro[4.5]decane-2-carbonyl]-2,3-dihydro-1H-inden-1-yl]-benzamide]"
99,98,–,–,"COc1cc(C)c(S(=O)(=O)NC2CCc3ccc(C(=O)N4CCC5(CC4)CCN(c4ccncc4)CC5)cc32)c(C)c1 (stereo not drawn) [Ind_CC-001, 4-methoxy-2,6-dimethyl-N-[6-(9-pyridin-4-yl-3,9-diazaspiro[5.5]undecane-3-carbonyl)-2,3-dihydro-1H-inden-1-yl]-benzenesulfonic acid amide]"
97,85,–,–,"O=C(NC1CCc2ccc(C(=O)N3CCC4(CC3)CCN(c3ccncc3)CC4)cc21)c1ccccn1 (stereo not drawn) [Ind_CC-002, N-[6-(9-pyridin-4-yl-3,9-diazaspiro[5.5]undecane-3-carbonyl)-2,3-dihydro-1H-inden-1-yl]-pyridine-2-carboxylic acid amide]"
99,101,–,–,"O=C(NC1CCc2ccc(C(=O)N3CCC4(CC3)CCN(c3ccncc3)CC4)cc21)c1ccccc1C(F)(F)F (stereo not drawn) [Ind_CC-003, N-[6-(9-pyridin-4-yl-3,9-diazaspiro[5.5]undecane-3-carbonyl)-2,3-dihydro-1H-inden-1-yl]-2-(trifluoromethyl)-benzamide]"
99,98,–,–,"O=C(NC1CCc2ccc(C(=O)N3CCC4(CC3)CCN(c3ccncc3)CC4)cc21)c1sccc1Cl (stereo not drawn) [Ind_CC-004, 3-chloro-N-[6-(9-pyridin-4-yl-3,9-diazaspiro[5.5]undecane-3-carbonyl)-2,3-dihydro-1H-inden-1-yl]-thiophene-2-carboxylic acid amide]"
97,98,–,–,"O=C(NC1CCc2ccc(C(=O)N3CCC4(CC3)CCN(c3ccncc3)CC4)cc21)c1ccc(Cl)s1 (stereo not drawn) [Ind_CC-005, 5-chloro-N-[6-(9-pyridin-4-yl-3,9-diazaspiro[5.5]undecane-3-carbonyl)-2,3-dihydro-1H-inden-1-yl]-thiophene-2-carboxylic acid amide]"
98,98,–,–,"O=C(NC1CCc2ccc(C(=O)N3CCC4(CC3)CCN(c3ccncc3)CC4)cc21)c1ccc(Cl)cc1Cl (stereo not drawn) [Ind_CC-006, 2,4-dichloro-N-[6-(9-pyridin-4-yl-3,9-diazaspiro[5.5]undecane-3-carbonyl)-2,3-dihydro-1H-inden-1-yl]-benzamide]"
99,102,–,–,"O=C(Cc1ccccc1Cl)NC1CCc2ccc(C(=O)N3CCC4(CC3)CCN(c3ccncc3)CC4)cc21 (stereo not drawn) [Ind_CC-007, 2-(2-chlorophenyl)-N-[6-(9-pyridin-4-yl-3,9-diazaspiro[5.5]undecane-3-carbonyl)-2,3-dihydro-1H-inden-1-yl]-acetamide]"
72,74,–,–,"O=C(/C=C/c1ccccc1Cl)NC1CCc2ccc(C(=O)N3CCC4(CC3)CCN(c3ccncc3)CC4)cc21 (stereo not drawn) [Ind_CC-008, (E)-3-(2-chlorophenyl)-N-[6-(9-pyridin-4-yl-3,9-diazaspiro[5.5]undecane-3-carbonyl)-2,3-dihydro-1H-inden-1-yl]-acrylamide]"
87,99,–,–,"O=C(NC1CCc2ccc(C(=O)N3CCC4(CC3)CCN(c3ccncc3)CC4)cc21)C(c1ccccc1)c1ccccc1Cl (stereo not drawn) [Ind_CC-009, 2-(2-chlorophenyl)-2-phenyl-N-[6-(9-pyridin-4-yl-3,9-diazaspiro[5.5]undecane-3-carbonyl)-2,3-dihydro-1H-inden-1-yl]-acetamide]"
97,100,–,–,"O=C(c1ccc2c(c1)C(NS(=O)(=O)c1ccccc1Cl)CC2)N1CCC2(CC1)CCN(c1ccncc1)CC2 (stereo not drawn) [Ind_CC-010, 2-chloro-N-[6-(9-pyridin-4-yl-3,9-diazaspiro[5.5]undecane-3-carbonyl)-2,3-dihydro-1H-inden-1-yl]-benzenesulfonic acid amide]"
–,–,36,76,O=C(Nc1ccc(Cl)c(Cl)c1)NC1CCc2ccc(C(=O)N3CCC4(CC3)CCN(c3ccncc3)CC4)cc21 (stereo not drawn) [Ind_CC-011]
100,100,–,–,"O=C(NCc1ccccc1Cl)NC1CCc2ccc(C(=O)N3CCC4(CC3)CCN(c3ccncc3)CC4)cc21 (stereo not drawn) [Ind_CC-012, 1-[(2-chlorophenyl)-methyl]-3-[6-(9-pyridin-4-yl-3,9-diazaspiro[5.5]undecane-3-carbonyl)-2,3-dihydro-1H-inden-1-yl]-urea]"
68,71,–,–,"COc1cc(C)c(C(=O)NC2CCc3ccc(C(=O)N4CCC5(CC4)CCN(c4ccncc4)CC5)cc32)c(C)c1 (stereo not drawn) [Ind_CC-013, 4-methoxy-2,6-dimethyl-N-[6-(9-pyridin-4-yl-3,9-diazaspiro[5.5]undecane-3-carbonyl)-2,3-dihydro-1H-inden-1-yl]-benzamide]"
